In BindingDB's records for doi:10.1016/0960-894X(95)00174-R (1995):

Experiments:
[1] = molecular target: Platelet-activating factor receptor (Oryctolagus cuniculus); assay: In vitro inhibitory activity against PAF-induced aggregation of rabbit platelets
[2] = molecular target: Platelet-activating factor receptor (Oryctolagus cuniculus); assay: In vitro ability to displace [3H]PAF from PAF receptor in rabbit platelet membranes

Row | SMILES | IC50 [1] [nM] | Ki [2] [nM]
1 | CCCCCCCCCCCCCCCCCCNC(=O)OC[C@H]1C[C@H](COC(=O)N(Cc2cccc[n+]2CC)C(=O)c2ccc(OC)cc2)S1 [1-Ethyl-2-{[(4-methoxy-benzoyl)-(4-octadecylcarbamoyloxymethyl-thietan-2-ylmethoxycarbonyl)-amino]-methyl}-pyridinium; chloride] | 84 | 34
2 | CCCCCCCCCCCCCCCCCCNC(=O)OC[C@H]1C[C@H](COC(=O)N(Cc2cccc[n+]2CC)C(C)=O)S1 [2-{[Acetyl-((2R,4R)-4-octadecylcarbamoyloxymethyl-thietan-2-ylmethoxycarbonyl)-amino]-methyl}-1-ethyl-pyridinium; chloride] | 57 | 4.3
3 | CCCCCCCCCCCCCCCCOC[C@H]1C[C@@H](COC(=O)N(Cc2cccc[n+]2CC)C(C)=O)O1 [2-{[Acetyl-((2S,4R)-4-hexadecyloxymethyl-oxetan-2-ylmethoxycarbonyl)-amino]-methyl}-1-ethyl-pyridinium; iodide] | 95 | 21
4 | CCCCCCCCCCCCCCCCCCNC(=O)OC[C@H]1C[C@H](COC(=O)N(Cc2cccc[n+]2CC)C(C)=O)C1 [2-{[Acetyl-(3-octadecylcarbamoyloxymethyl-cyclobutylmethoxycarbonyl)-amino]-methyl}-1-ethyl-pyridinium; iodide] | – | 4.3
5 | CCCCCCCCCCCCCCCCNC(=O)OC[C@@H]1C[C@@H](COC(=O)N(Cc2cccc[n+]2CC)C(C)=O)S1 [2-{[Acetyl-((2S,4S)-4-hexadecylcarbamoyloxymethyl-thietan-2-ylmethoxycarbonyl)-amino]-methyl}-1-ethyl-pyridinium; chloride] | – | 9.8
6 | CCCCCCCCCCCCCCCCOC[C@H]1C[C@H](COC(=O)N(Cc2cccc[n+]2CC)C(C)=O)S1 [2-{[Acetyl-((2R,4R)-4-hexadecyloxymethyl-thietan-2-ylmethoxycarbonyl)-amino]-methyl}-1-ethyl-pyridinium; chloride] | 52 | 20
7 | CCCCCCCCCCCCCCCCCCNC(=O)OC[C@H]1C[C@H](COC(=O)N(Cc2cccc[n+]2CC)C(C)=O)N1C(C)=O [2-{[Acetyl-((2R,4R)-1-acetyl-4-octadecylcarbamoyloxymethyl-azetidin-2-ylmethoxycarbonyl)-amino]-methyl}-1-ethyl-pyridinium; chloride] | – | 35
8 | CCCCCCCCCCCCCCCCOC[C@@H]1C[C@@H](COC(=O)N(Cc2cccc[n+]2CC)C(C)=O)O1 [2-{[Acetyl-((2S,4S)-4-hexadecyloxymethyl-oxetan-2-ylmethoxycarbonyl)-amino]-methyl}-1-ethyl-pyridinium; iodide] | 57 | 15
9 | CCCCCCCCCCCCCCCCCCNC(=O)OC[C@H]1C[C@@H](COC(=O)N(Cc2cccc[n+]2CC)C(C)=O)S1 [2-{[Acetyl-((2S,4R)-4-octadecylcarbamoyloxymethyl-thietan-2-ylmethoxycarbonyl)-amino]-methyl}-1-ethyl-pyridinium; chloride] | 61 | 9.8
